Consider one molecule from ChEMBL document CHEMBL1149203, “Design, synthesis, and characterization of an ATP-peptide conjugate inhibitor of protein kinase A” (Bioorg Med Chem Lett, 2004).

SMILES strings stand for the structures.

In the experiment the target is cAMP-dependent protein kinase (PKA) (Homo sapiens, UniProt P22694+P17612+P22612). Put plainly: Inhibition of protein kinase A expressed in Escherichia coli.

For `CC(=O)N[C@@H](CC(C)C)C(=O)N[C@@H](CCCN=C(N)N)C(=O)N[C@@H](CCCN=C(N)N)C(=O)N[C@@H](C)C(=O)NC(CNC(=O)CSP(=O)(O)OP(=O)(O)OP(=O)(O)OC[C@H]1O[C@@H](n2cnc3c(N)ncnc32)[C@H](O)[C@@H]1O)C(=O)N[C@@H](CC(C)C)C(=O)NCC(=O)O` (stereo partly specified), the Ki (in general, a measure of affinity in units of concentration, obtained from inhibition or displacement) was determined as 3.8 µM. This lies in the single-digit micromolar range.
